From PubChem BioAssay (NCI)
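How tested: cells in 96-well plates exposed to compound for 48 hours at five concentrations. TGI denotes the concentration required for complete inhibition of growth.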

Tests used:
Test in all cases: growth of human tumour cells (NCI), 48 h
[1] = tested on: NCI-H522 lung
[2] = tested on: SK-MEL-28 melanoma
[3] = tested on: TK-10 renal
[4] = tested on: UO-31 renal
[5] = tested on: HCT-116 colon
[6] = tested on: HL-60(TB) leukemia
[7] = tested on: PC-3 prostate
[8] = tested on: DU-145 prostate
[9] = tested on: LOX IMVI melanoma
[10] = tested on: UACC-257 melanoma
[11] = tested on: HCT-15 colon
[12] = tested on: EKVX NSCLC
[13] = tested on: HS 578T breast
[14] = tested on: NCI-H23 lung
[15] = tested on: SK-MEL-5 melanoma
[16] = tested on: A498 renal
[17] = tested on: SF-539 CNS
[18] = tested on: M14 melanoma
[19] = tested on: CAKI-1 renal
[20] = tested on: BT-549 breast
[21] = tested on: SNB-19 CNS
[22] = tested on: SF-295 CNS
[23] = tested on: SK-MEL-2 melanoma
[24] = tested on: IGROV1 ovarian
[25] = tested on: UACC-62 melanoma
[26] = tested on: MDA-MB-231 breast
[27] = tested on: MDA-MB-435
[28] = tested on: KM12 colon
[29] = tested on: U251 CNS
[30] = tested on: COLO 205 colon
[31] = tested on: HT29 colon
[32] = tested on: K-562 leukemia
[33] = tested on: T-47D breast
[34] = tested on: A549 NSCLC
[35] = tested on: SK-OV-3 ovarian
[36] = tested on: OVCAR-8 ovarian
[37] = tested on: RXF 393 renal
[38] = tested on: 786-0 renal
[39] = tested on: MALME-3M melanoma
[40] = tested on: SN12C renal
[41] = tested on: MCF7 breast
[42] = tested on: OVCAR-4 ovarian
[43] = tested on: OVCAR-5 ovarian
[44] = tested on: OVCAR-3 ovarian
[45] = tested on: HOP-62 NSCLC
[46] = tested on: CCRF-CEM leukemia
[47] = tested on: NCI-H460 lung
[48] = tested on: HOP-92 NSCLC
[49] = tested on: SF-268 CNS
[50] = tested on: SR leukemia
[51] = tested on: NCI/ADR-RES ovarian
[52] = tested on: ACHN renal
[53] = tested on: MOLT-4 leukemia
[54] = tested on: MDA-N
[55] = tested on: SNB-75 CNS
[56] = tested on: RPMI-8226 leukemia
[57] = tested on: HCC-2998 colon
[58] = tested on: NCI-H226 lung

O=C(CCc1ccc(O)cc1)NCCc1cccc(O)c1
TGI [1]: > 50 µM
TGI [2]: > 50 µM
TGI [3]: > 50 µM
TGI [4]: > 50 µM
TGI [5]: > 50 µM
TGI [6]: > 50 µM
TGI [7]: > 50 µM
TGI [8]: > 50 µM
TGI [9]: > 50 µM
TGI [10]: > 50 µM
TGI [11]: > 50 µM
TGI [12]: > 50 µM
TGI [13]: > 50 µM
TGI [14]: > 50 µM
TGI [15]: > 50 µM
TGI [16]: > 50 µM
TGI [17]: > 50 µM
TGI [18]: > 50 µM
TGI [19]: > 50 µM
TGI [20]: > 50 µM
TGI [21]: > 50 µM
TGI [22]: > 50 µM
TGI [23]: > 50 µM
TGI [24]: > 50 µM
TGI [25]: > 50 µM
TGI [26]: > 50 µM
TGI [27]: > 50 µM
TGI [28]: > 50 µM
TGI [29]: > 50 µM
TGI [30]: > 50 µM
TGI [31]: > 50 µM
TGI [32]: > 50 µM
TGI [33]: > 50 µM
TGI [34]: > 50 µM
TGI [35]: > 50 µM
TGI [36]: > 50 µM
TGI [37]: > 50 µM
TGI [38]: > 50 µM
TGI [39]: > 50 µM
TGI [40]: > 50 µM
TGI [41]: > 50 µM
TGI [42]: > 50 µM
TGI [43]: > 50 µM
TGI [44]: > 50 µM
TGI [45]: > 50 µM
TGI [46]: > 50 µM
TGI [47]: > 50 µM
TGI [48]: > 50 µM
TGI [49]: > 50 µM
TGI [50]: > 50 µM
TGI [51]: > 50 µM
TGI [52]: > 50 µM
TGI [53]: > 50 µM
TGI [54]: > 50 µM

COc1ccccc1NCc1nnc(CCCCCCCCc2nnc(CNc3ccccc3OC)o2)o1
TGI [1]: > 100 µM
TGI [3]: > 100 µM
TGI [4]: > 100 µM
TGI [5]: > 100 µM
TGI [7]: > 100 µM
TGI [8]: > 100 µM
TGI [9]: > 100 µM
TGI [10]: > 100 µM
TGI [55]: > 100 µM
TGI [11]: > 100 µM
TGI [12]: > 100 µM
TGI [13]: > 100 µM
TGI [14]: > 100 µM
TGI [15]: > 100 µM
TGI [16]: > 100 µM
TGI [18]: > 100 µM
TGI [56]: > 100 µM
TGI [19]: > 100 µM
TGI [20]: > 100 µM
TGI [21]: > 100 µM
TGI [22]: > 100 µM
TGI [57]: > 100 µM
TGI [23]: > 100 µM
TGI [25]: > 100 µM
TGI [26]: > 100 µM
TGI [27]: > 100 µM
TGI [28]: > 100 µM
TGI [29]: > 100 µM
TGI [30]: > 100 µM
TGI [31]: > 100 µM
TGI [32]: > 100 µM
TGI [33]: > 100 µM
TGI [34]: > 100 µM
TGI [35]: > 100 µM
TGI [36]: > 100 µM
TGI [37]: > 100 µM
TGI [38]: > 100 µM
TGI [39]: > 100 µM
TGI [40]: > 100 µM
TGI [41]: > 100 µM
TGI [42]: > 100 µM
TGI [43]: > 100 µM
TGI [44]: > 100 µM
TGI [45]: > 100 µM
TGI [46]: > 100 µM
TGI [47]: > 100 µM
TGI [48]: > 100 µM
TGI [49]: > 100 µM
TGI [50]: > 100 µM
TGI [51]: > 100 µM
TGI [52]: > 100 µM
TGI [53]: > 100 µM
TGI [54]: > 100 µM

Cc1c(C)c(S(=O)(=O)N(CCCCCCN)OCCCN)c(C)c2c1OC(C)(C)CC2
TGI [1]: 9.95 µM
TGI [58]: 27.5 µM
TGI [2]: 71.9 µM
TGI [3]: 32.8 µM
TGI [4]: 28.6 µM
TGI [5]: 4.63 µM
TGI [7]: 17.3 µM
TGI [8]: 64 µM
TGI [10]: 29.7 µM
TGI [55]: 11 µM
TGI [11]: 34.7 µM
TGI [12]: 19.8 µM
TGI [13]: 13 µM
TGI [14]: 24 µM
TGI [15]: > 35.6 µM
TGI [16]: 40.3 µM
TGI [17]: > 100 µM
TGI [18]: > 64.1 µM
TGI [56]: 7.68 µM
TGI [19]: > 53.1 µM
TGI [20]: 28.6 µM
TGI [21]: 12.9 µM
TGI [22]: 22.6 µM
TGI [57]: 3.8 µM
TGI [23]: 6.13 µM
TGI [24]: 4.62 µM
TGI [25]: 30.6 µM
TGI [26]: 20.1 µM
TGI [27]: 15 µM
TGI [28]: 3.75 µM
TGI [29]: > 20.7 µM
TGI [30]: > 26.5 µM
TGI [31]: 24.9 µM
TGI [32]: > 28.3 µM
TGI [33]: > 47.1 µM
TGI [34]: 29 µM
TGI [35]: 25.2 µM
TGI [36]: 26 µM
TGI [37]: 15.6 µM
TGI [38]: 11.9 µM
TGI [39]: 4.34 µM
TGI [40]: > 100 µM
TGI [41]: > 100 µM
TGI [42]: 8.37 µM
TGI [43]: > 51.4 µM
TGI [44]: 7.53 µM
TGI [45]: 15.9 µM
TGI [46]: > 20.9 µM
TGI [47]: 8.45 µM
TGI [48]: 15.2 µM
TGI [49]: 22.5 µM
TGI [50]: > 31.6 µM
TGI [51]: 33.2 µM
TGI [52]: 25.6 µM
TGI [53]: 10.4 µM
TGI [54]: 30.9 µM
